Earlier results as cited in US11013731B2, “Intratumoral administration of sirolimus for treatment of prostate cancer” (SANTEN PHARMACEUTICAL CO., LTD., priority 2017, dated 2021).

Conditions: according to Medscape

oral bioavailability: 14%
SMILES: CO[C@H]1C[C@@H]2CC[C@@H](C)[C@@](O)(O2)C(=O)C(=O)N2CCCC[C@H]2C(=O)O[C@H]([C@H](C)C[C@@H]2CC[C@@H](O)[C@H](OC)C2)CC(=O)[C@H](C)/C=C(\C)[C@@H](O)[C@@H](OC)C(=O)[C@H](C)C[C@H](C)/C=C/C=C/C=C/1C [sirolimus]
